Experiments:
[1] = tested on: MDA-MB-231; assay: Antiproliferative activity against human MDA-MB-231 cells assessed as cell growth inhibition incubated for 72 hrs by MTT assay; assay type: functional, cell-based; settings: MDA-MB-231, 72 h
[2] = tested on: MDA-MB-468; assay: Antiproliferative activity against human MDA-MB-468 cells assessed as cell growth inhibition incubated for 72 hrs by MTT assay; assay type: functional, cell-based; settings: MDA-MB-468, 72 h

Row | Structure (SMILES) | IC50 [1] | IC50 [2]
1 | Cc1cc(C)c(CNC(=O)c2cc(-c3ccc(N4CCNCC4)nc3)cc3c2cnn3C(C)C)c(=O)[nH]1 | > 40 µM | > 40 µM
2 | Cc1cc(C)c(CNC(=O)c2cc(-c3ccc(N4CCN(C(=O)CCCCCCCCc5cn(CCOCCOCCNc6cccc7c6C(=O)N(C6CCC(=O)NC6=O)C7=O)nn5)CC4)nc3)cc3c2cnn3C(C)C)c(=O)[nH]1 (stereo unspecified) | > 40 µM | > 40 µM
3 | Cc1cc(C)c(CNC(=O)c2cc(-c3ccc(N4CCN(C(=O)CCCCc5cn(CCOCCOCCOCCOCCOCCNc6cccc7c6C(=O)N(C6CCC(=O)NC6=O)C7=O)nn5)CC4)nc3)cc3c2cnn3C(C)C)c(=O)[nH]1 (stereo unspecified) | 30.3 µM | 22.3 µM
4 | Cc1cc(C)c(CNC(=O)c2cc(-c3ccc(N4CCN(C(=O)CCc5cn(CCOCCOCCOCCOCCOCCNc6cccc7c6C(=O)N(C6CCC(=O)NC6=O)C7=O)nn5)CC4)nc3)cc3c2cnn3C(C)C)c(=O)[nH]1 (stereo unspecified) | > 40 µM | > 40 µM
5 | Cc1cc(C)c(CNC(=O)c2cc(-c3ccc(N4CCN(C(=O)CCCCCn5cc(CCCCCC(=O)N[C@@H](C(=O)N6C[C@H](O)C[C@H]6C(=O)NCc6ccc(-c7scnc7C)cc6)C(C)(C)C)nn5)CC4)nc3)cc3c2cnn3C(C)C)c(=O)[nH]1 | 26.3 µM | 14.5 µM
6 | Cc1cc(C)c(CNC(=O)c2cc(-c3ccc(N4CCN(C(=O)CCCCC(=O)N[C@H](C(=O)N5C[C@H](O)C[C@H]5C(=O)NCc5ccc(-c6scnc6C)cc5)C(C)(C)C)CC4)nc3)cc3c2cnn3C(C)C)c(=O)[nH]1 | > 40 µM | > 40 µM
7 | Cc1cc(C)c(CNC(=O)c2cc(-c3ccc(N4CCN(C(=O)Cn5cc(CCCCC(=O)N[C@@H](C(=O)N6C[C@H](O)C[C@H]6C(=O)NCc6ccc(-c7scnc7C)cc6)C(C)(C)C)nn5)CC4)nc3)cc3c2cnn3C(C)C)c(=O)[nH]1 | > 40 µM | > 40 µM
8 | Cc1cc(C)c(CNC(=O)c2cc(-c3ccc(N4CCN(C(=O)CCCCCn5cc(CCCCC(=O)N[C@@H](C(=O)N6C[C@H](O)C[C@H]6C(=O)NCc6ccc(-c7scnc7C)cc6)C(C)(C)C)nn5)CC4)nc3)cc3c2cnn3C(C)C)c(=O)[nH]1 | 35.4 µM | 23.2 µM
9 | Cc1cc(C)c(CNC(=O)c2cc(-c3ccc(N4CCN(C(=O)CCCc5cn(CCOCCOCCOCCOCCOCCNc6cccc7c6C(=O)N(C6CCC(=O)NC6=O)C7=O)nn5)CC4)nc3)cc3c2cnn3C(C)C)c(=O)[nH]1 (stereo unspecified) | > 40 µM | 33.6 µM
10 | Cc1cc(C)c(CNC(=O)c2cc(-c3ccc(N4CCN(CCNC(=O)CC56CC7CC(CC(C7)C5)C6)CC4)nc3)cc3c2cnn3C(C)C)c(=O)[nH]1 | > 40 µM | 3.41 µM
11 | Cc1cc(C)c(CNC(=O)c2cc(-c3ccc(N4CCN(C(=O)Cn5cc(CCC(=O)N[C@@H](C(=O)N6C[C@H](O)C[C@H]6C(=O)NCc6ccc(-c7scnc7C)cc6)C(C)(C)C)nn5)CC4)nc3)cc3c2cnn3C(C)C)c(=O)[nH]1 | > 40 µM | > 40 µM
12 | Cc1cc(C)c(CNC(=O)c2cc(-c3ccc(N4CCN(C(=O)CCCCn5cc(CCCCC(=O)N[C@@H](C(=O)N6C[C@H](O)C[C@H]6C(=O)NCc6ccc(-c7scnc7C)cc6)C(C)(C)C)nn5)CC4)nc3)cc3c2cnn3C(C)C)c(=O)[nH]1 | > 40 µM | > 40 µM
13 | Cc1cc(C)c(CNC(=O)c2cc(-c3ccc(N4CCN(C(=O)Cn5cc(CCCC(=O)N[C@@H](C(=O)N6C[C@H](O)C[C@H]6C(=O)NCc6ccc(-c7scnc7C)cc6)C(C)(C)C)nn5)CC4)nc3)cc3c2cnn3C(C)C)c(=O)[nH]1 | > 40 µM | > 40 µM

Compounds with a lower IC50 [1], results first:

Row | IC50 [1] | IC50 [2] | Structure (SMILES)
14 | 11.2 µM | 1.29 µM | CC[C@H](C)n1cc(C)c2c(C(=O)NCc3c(C)cc(C)[nH]c3=O)cc(-c3ccc(N4CCN(C(=O)CCCCCCCCc5cn(CCOCCOCCOCCOCCOCCNc6cccc7c6C(=O)N(C6CCC(=O)NC6=O)C7=O)nn5)CC4)nc3)cc21 (stereo partly specified)
15 | 16.4 µM | 7.63 µM | Cc1cc(C)c(CNC(=O)c2cc(-c3ccc(N4CCN(C(=O)CCCCCn5cc(CCCCCCCCC(=O)N[C@@H](C(=O)N6C[C@H](O)C[C@H]6C(=O)NCc6ccc(-c7scnc7C)cc6)C(C)(C)C)nn5)CC4)nc3)cc3c2cnn3C(C)C)c(=O)[nH]1
16 | 1.63 µM | 1.01 µM | Cc1cc(C)c(CNC(=O)c2cc(-c3ccc(N4CCN(C(=O)CCCCCCCCc5cn(CCOCCOCCOCCOCCOCCOCCOCCNc6cccc7c6C(=O)N(C6CCC(=O)NC6=O)C7=O)nn5)CC4)nc3)cc3c2cnn3C(C)C)c(=O)[nH]1 (stereo unspecified)
17 | 5.15 µM | 3.08 µM | Cc1cc(C)c(CNC(=O)c2cc(-c3ccc(N4CCN(C(=O)CCCCCCCC(=O)N[C@H](C(=O)N5C[C@H](O)C[C@H]5C(=O)NCc5ccc(-c6scnc6C)cc5)C(C)(C)C)CC4)nc3)cc3c2cnn3C(C)C)c(=O)[nH]1
18 | 1.28 µM | 1.07 µM | CCN(c1cc(-c2ccc(N3CCN(C(=O)CCCCCCCCc4cn(CCOCCOCCOCCOCCOCCOCCNc5cccc6c5C(=O)N(C5CCC(=O)NC5=O)C6=O)nn4)CC3)nc2)cc(C(=O)NCc2c(C)cc(C)[nH]c2=O)c1C)C1CCOCC1 (stereo unspecified)
19 | 25.2 µM | 8.24 µM | Cc1cc(C)c(CNC(=O)c2cc(-c3ccc(N4CCN(C(=O)CCCCCCC(=O)N[C@H](C(=O)N5C[C@H](O)C[C@H]5C(=O)NCc5ccc(-c6scnc6C)cc5)C(C)(C)C)CC4)nc3)cc3c2cnn3C(C)C)c(=O)[nH]1
20 | 1.7 µM | 1.14 µM | Cc1cc(C)c(CNC(=O)c2cc(-c3ccc(N4CCN(CCCCCCc5cn(CCOCCOCCOCCOCCOCCNc6cccc7c6C(=O)N(C6CCC(=O)NC6=O)C7=O)nn5)CC4)nc3)cc3c2cnn3C(C)C)c(=O)[nH]1 (stereo unspecified)
21 | 1.21 µM | 0.89 µM | Cc1cc(C)c(CNC(=O)c2cc(-c3ccc(N4CCN(C(=O)CCCCCCCCc5cn(CCOCCOCCOCCOCCOCCNc6cccc7c6C(=O)N(C6CCC(=O)NC6=O)C7=O)nn5)CC4)nc3)cc3c2cnn3C(C)C)c(=O)[nH]1 (stereo unspecified)
22 | 21.8 µM | 4.02 µM | CCN(c1cc(-c2ccc(N3CCN(C(=O)CCCCCCCCc4cn(CCOCCOCCOCCOCCNc5cccc6c5C(=O)N(C5CCC(=O)NC5=O)C6=O)nn4)CC3)nc2)cc(C(=O)NCc2c(C)cc(C)[nH]c2=O)c1C)C1CCOCC1 (stereo unspecified)
23 | 14.7 µM | 7.67 µM | CCCc1cc(C)[nH]c(=O)c1CNC(=O)c1cc(-c2ccc(N3CCN(C(C)C)CC3)nc2)cc2c1cnn2C(C)C
24 | 1.09 µM | 0.7 µM | CCN(c1cc(-c2ccc(N3CCN(C(=O)CCCCCCCCc4cn(CCOCCOCCOCCOCCOCCNc5cccc6c5C(=O)N(C5CCC(=O)NC5=O)C6=O)nn4)CC3)nc2)cc(C(=O)NCc2c(C)cc(C)[nH]c2=O)c1C)C1CCOCC1 (stereo unspecified)
25 | 5.05 µM | 2.86 µM | Cc1cc(C)c(CNC(=O)c2cc(-c3ccc(N4CCN(CCCCc5cn(CCOCCOCCOCCOCCOCCNc6cccc7c6C(=O)N(C6CCC(=O)NC6=O)C7=O)nn5)CC4)nc3)cc3c2cnn3C(C)C)c(=O)[nH]1 (stereo unspecified)
26 | 19.2 µM | 2.03 µM | Cc1cc(C)c(CNC(=O)c2cc(-c3ccc(N4CCN(C(=O)CCCCCCCCc5cn(CCOCCOCCOCCOCCNc6cccc7c6C(=O)N(C6CCC(=O)NC6=O)C7=O)nn5)CC4)nc3)cc3c2cnn3C(C)C)c(=O)[nH]1 (stereo unspecified)
27 | 16.1 µM | 10.7 µM | Cc1cc(C)c(CNC(=O)c2cc(-c3ccc(N4CCN(C(=O)CCCCCc5cn(CCOCCOCCOCCOCCOCCNc6cccc7c6C(=O)N(C6CCC(=O)NC6=O)C7=O)nn5)CC4)nc3)cc3c2cnn3C(C)C)c(=O)[nH]1 (stereo unspecified)
28 | 24.4 µM | 4.21 µM | CC[C@H](C)n1cc(C)c2c(C(=O)NCc3c(C)cc(C)[nH]c3=O)cc(-c3ccc(N4CCN(C(=O)CCCCCCCCc5cn(CCOCCOCCOCCOCCNc6cccc7c6C(=O)N(C6CCC(=O)NC6=O)C7=O)nn5)CC4)nc3)cc21 (stereo partly specified)

Reference: ChEMBL document CHEMBL5113418, “Discovery of precision targeting EZH2 degraders for triple-negative breast cancer” (Eur J Med Chem, 2022)
